# Assay results: patent publication US11555200B2, “Regulation of cotton fiber growth by extracellular nucleotides and ectoapyrases” (priority 2008, dated 2023)
# Entries after “also recorded” stand apart in the source; their conditions may differ.
# How the values were obtained:
# cotton fibers = test: In vitro cotton ovule culture, fiber growth (fiber length); type: cell-based, Gossypium hirsutum; settings: for increase in average fiber length: by 7 dpa; for block of promotion of fiber growth by 30 μM ATPγS and ADPβS: co-applied with 30 μM nucleotide, 7 dpa; for reversal of the effects of high concentrations of ATPγS and ADPβS on fiber growth: co-applied with 150 μM ATPγS or ADPβS; for block of both the inhibition and stimulation of fiber growth by ATPγS and ADPβS: summary statement
# Description: In Vitro Ovule Culture. Cotton bolls were harvested within 24 hours of flower opening, 1-DPA, and all petals bracts, and sepals were removed. All collected cotton bolls were used within 24 hours of original harvest. If the bolls were not used immediately they were stored in a 4° C. refrigerator until ready for use. For sterilization, bolls were dropped into an 85% ethanol solution for at least 30 seconds but not more than two minutes and then removed with forceps. The excess ethanol was shaken off and the boll was passed through a flame until the residual ethanol was burned off. Ovules were then excised and placed in 10 mL of BT Cotton Media cell culture (Caisson Laboratories, Inc., North Logan, Utah, USA)+5.0 μM IAA and 0.5 μM GA3 (Sigma, St. Louis, Mo., USA) hormone solution, final concentration, in 60×15 mm Petri dishes and were then wrapped in Milli Wrap (Millipore Corporation, Bedford, Mass.). Twelve to 16 cotton ovules were placed into their respective Petri dishes and incubated with nucleotides, inhibitors, antibody serum or a combination of these at specified concentrations and were cultured at 32° C. in the dark without agitation. To facilitate combing of the cultured ovules, ovules were placed in a 75% ethanol solution for 15 minutes and then taken out to be combed. Fiber lengths were measured manually with a dissecting microscope after laying the ovule on its side and combing the fiber cells away from the ovule with forceps and dissecting probe.
# In Vitro Cotton Ovule Culture Treatments. For studies testing the effects of apyrase inhibitors on cotton fiber growth, the inhibitors (NGXT191 and AI #4, both at 2.5 mg/mL), were dissolved in dimethyl sulfoxide and then applied to Cotton Media cell culture at 3 and 5 DPA after the introduction of cotton ovules to the media. For experiments testing the effects of apyrase antibodies on cotton fiber growth, apyrase antibodies were applied to Cotton Media cell culture at 3 and 5 DPA after the introduction of cotton ovules in the appropriate amounts. For experiments testing the effects of applying nucleotides during cotton fiber growth, various concentrations of ATPγS, ADPβS, and AMP (Sigma-Aldrich, Inc., St. Louis, Mo., USA) were added to Cotton Media cell culture at 5 DPA after the introduction of cotton ovules in the appropriate amounts. All nucleotides were made into 50 mM stocks dissolved in de-ionized water and kept at −20° C. while not in use. The inhibitor stocks were stored at ˜20° C. while not in use. For experiments testing the effects of P2-receptor antagonists, the antagonists (PPADS and Adenosine, stocks at 50 mM) were dissolved in de-ionized water and then applied to Cotton Media cell culture at 3 and 5 DPA for inhibitor and antibody experiments and 5 DPA for applied nucleotide experiments. The antagonists stocks were stored at ˜20° C. while not in use (Sigma-Aldrich, Inc., St. Louis, Mo., USA). The ethylene inhibitor (S)-trans-2-Amino-4-(2-aminoethoxy)-3-butenoic acid hydrochloride (Sigma-Aldrich, Inc., St. Louis, Mo., USA) (AVG, stock at 50 mM) was dissolved in de-ionized water and then applied to Cotton Media cell culture at 5 DPA. The production of the Arabidopsis anti-APY1 and APY2 antibodies used is described by Steinebrunner et al. (2003). The crude immune and pre-immune sera were purified using protein A-sepharose following the protocol described by Martin et al. (1982) with the slight modification that the buffers used were azide-free. Bio-rad assay was used to determine that the concentration of the immune serum and pre-immune serum which was 0.46 μg/mL and 0.3 μg/mL, respectively.
# apyrase activity = test: ATP level in the medium outside growing cotton fibers in ovule culture; type: cell-based, Gossypium hirsutum; settings: highest concentration of inhibitor, versus control level of 330 nM
# Description: Apyrase inhibitors and anti-apyrase antibodies inhibit fiber elongation. In order to test whether apyrase activity is important during cotton fiber growth we applied varying concentrations of two different chemical apyrase inhibitors, apyrase inhibitor 4 and NGXT191, to cotton ovule cultures at 3 dpa and 5 dpa. […] There is clearly a dose-dependent effect, and the effects at each dosage are statistically significant. […] The level of inhibition increased with increasing concentrations of both inhibitors. Next when PPADS, an inhibitor of animal purinoceptors, was tested, it could block the 40% inhibition of fiber growth caused by application of the highest concentration of apyrase inhibitors. […] Application of the highest concentration of inhibitors NGXT191 and 4 caused a 2.1-fold and 3.2-fold increase in ATP levels, respectively.
# In Vitro Ovule Culture. Cotton bolls were harvested within 24 hours of flower opening, 1-DPA, and all petals bracts, and sepals were removed. All collected cotton bolls were used within 24 hours of original harvest. If the bolls were not used immediately they were stored in a 4° C. refrigerator until ready for use. […] Fiber lengths were measured manually with a dissecting microscope after laying the ovule on its side and combing the fiber cells away from the ovule with forceps and dissecting probe. […]
Structure (SMILES),increase in average fiber length (cotton fibers; 30 μM),"effect on fiber growth (cotton fibers; 150 μM, at 7 dpa)",block of promotion of fiber growth by 30 μM ATPγS and ADPβS (cotton fibers),reversal of the effects of high concentrations of ATPγS and ADPβS on fiber growth (cotton fibers),block of both the inhibition and stimulation of fiber growth by ATPγS and ADPβS (cotton fibers),further results
Nc1ncnc2c1ncn2[C@@H]1O[C@H](COP(=O)(O)OP(O)(O)=S)[C@@H](O)[C@H]1O [ADPβS],44%,inhibit growth,–,–,–,–
Nc1ncnc2c1ncn2[C@@H]1O[C@H](COP(O)(O)=S)[C@@H](O)[C@H]1O [AMPS],–,–,–,–,–,"effect on fiber growth (cotton fibers; 200 μM, at 7 dpa): no effect on growth; effect on fiber growth (cotton fibers; concentration not given): no change in the growth rate; also recorded: no effect on fiber growth"
Nc1ncnc2c1ncn2[C@@H]1O[C@H](COP(=O)(O)OP(=O)(O)OP(O)(O)=S)[C@@H](O)[C@H]1O [ATPγS],46%,inhibit growth,–,–,–,"promotion of cotton fiber growth (cotton fibers; 30 μM, at 5 dpa (data not shown)): statistically significant levels of promotion of cotton fiber growth; growth rate of fibers (cotton fibers; 30 μM, between 5 dpa and 7 dpa (data not shown)): statistically significant increase in the growth rate; inhibition of cotton fiber growth (cotton fibers; 150 μM, at 5 dpa): Statistically significant levels of inhibition of cotton fiber growth"
Cc1cccc(NS(=O)(=O)c2ccc(-c3ccccc3)cc2)c1 [NGXT191],–,–,–,–,–,"increase in ATP levels outside of the growing fibers (apyrase activity): 2.1 fold; inhibition of fiber growth (cotton fibers; all three concentrations, applied at 3 dpa and 5 dpa, fibers measured at 7 dpa): statistically significant inhibition of fiber growth"
Cc1nc(N=Nc2ccc(S(=O)(=O)O)cc2S(=O)(=O)O)c(COP(=O)(O)O)c(C=O)c1O [PPADS],–,–,blocked,reversed,blocked,reversal of fiber growth inhibition caused by apyrase inhibitors (cotton fibers; 250 μM PPADS in the media with highest concentration of apyrase inhibitors): returned to control levels
Nc1ncnc2c1ncn2[C@@H]1O[C@H](CO)[C@@H](O)[C@H]1O [adenosine],–,–,blocked,reversed,blocked,–
